Data as given in publication PMC11277489, “Novel Piperazine Derivatives of Vindoline as Anticancer Agents” (International Journal of Molecular Sciences, 2024).

Key:
CCRF-CEM = assay: NCI60 one-dose screen (10 μM), Leukemia; assay type: cell-based; details: Homo sapiens, 10 μM, Leukemia, read-out: Growth percent rate
HL-60(TB) = assay: NCI60 one-dose screen (10 μM), Leukemia; assay type: cell-based; details: Homo sapiens; 10 μM; HL-60(TB), Leukemia; read-out: Growth percent rate
K-562 = assay: NCI60 one-dose screen (10 μM), Leukemia; assay type: cell-based; details: Homo sapiens, K562; 10 μM; K-562, Leukemia; read-out: Growth percent rate
MOLT-4 = assay: NCI60 one-dose screen (10 μM), Leukemia; assay type: cell-based, human; details: Homo sapiens; 10 μM; MOLT-4, Leukemia; read-out: Growth percent rate
RPMI-8226 = assay: NCI60 one-dose screen (10 μM), Leukemia; assay type: cell-based; details: Homo sapiens; 10 μM; RPMI-8226, Leukemia; read-out: Growth percent rate
A549/ATCC = assay: NCI60 one-dose screen (10 μM), Non-small Cell Lung Cancer; assay type: cell-based; details: Homo sapiens; 10 μM; A549/ATCC, Non-small Cell Lung Cancer; read-out: Growth percent rate
HOP-62 = assay: as above; assay type: cell-based; details: Homo sapiens; 10 μM; HOP-62, Non-small Cell Lung Cancer; read-out: Growth percent rate
NCI-H322M = assay: as above; assay type: cell-based; details: Homo sapiens, 10 μM, Non-small Cell Lung Cancer, read-out: Growth percent rate
NCI-H460 = assay: as above; assay type: cell-based; details: Homo sapiens; 10 μM; NCI-H460, Non-small Cell Lung Cancer; read-out: Growth percent rate
NCI-H522 = assay: as above; assay type: cell-based; details: Homo sapiens; 10 μM; NCI-H522, Non-small Cell Lung Cancer; read-out: Growth percent rate
COLO 205 = assay: NCI60 one-dose screen (10 μM), Colon Cancer; assay type: cell-based, human; details: Homo sapiens; 10 μM; COLO 205, Colon Cancer; read-out: Growth percent rate
HCT-116 = assay: NCI60 one-dose screen (10 μM), Colon Cancer; assay type: cell-based; details: Homo sapiens; 10 μM; HCT-116, Colon Cancer; read-out: Growth percent rate
HCT-15 = assay: NCI60 one-dose screen (10 μM), Colon Cancer; assay type: cell-based; details: Homo sapiens; 10 μM; HCT-15, Colon Cancer; read-out: Growth percent rate
HT29 = assay: NCI60 one-dose screen (10 μM), Colon Cancer; assay type: cell-based; details: Homo sapiens, HT-29; 10 μM; HT29, Colon Cancer; read-out: Growth percent rate
KM12 = assay: NCI60 one-dose screen (10 μM), Colon Cancer; assay type: cell-based, human; details: Homo sapiens; 10 μM; KM12, Colon Cancer; read-out: Growth percent rate
SW-620 = assay: NCI60 one-dose screen (10 μM), Colon Cancer; assay type: cell-based; details: Homo sapiens; 10 μM; SW-620, Colon Cancer; read-out: Growth percent rate
SF-268 = assay: NCI60 one-dose screen (10 μM), CNS Cancer; assay type: cell-based; details: Homo sapiens; 10 μM; SF-268, CNS Cancer; read-out: Growth percent rate
SF-295 = assay: NCI60 one-dose screen (10 μM), CNS Cancer; assay type: cell-based; details: Homo sapiens; 10 μM; SF-295, CNS Cancer; read-out: Growth percent rate
SF-539 = assay: NCI60 one-dose screen (10 μM), CNS Cancer; assay type: cell-based, human; details: Homo sapiens; 10 μM; SF-539, CNS Cancer; read-out: Growth percent rate
SNB-19 = assay: NCI60 one-dose screen (10 μM), CNS Cancer; assay type: cell-based; details: Homo sapiens; 10 μM; SNB-19, CNS Cancer; read-out: Growth percent rate
SNB-75 = assay: NCI60 one-dose screen (10 μM), CNS Cancer; assay type: cell-based, human; details: Homo sapiens; 10 μM; SNB-75, CNS Cancer; read-out: Growth percent rate
U251 = assay: NCI60 one-dose screen (10 μM), CNS Cancer; assay type: cell-based; details: Homo sapiens, U-251; 10 μM; U251, CNS Cancer; read-out: Growth percent rate
LOX IMVI = assay: NCI60 one-dose screen (10 μM), Melanoma; assay type: cell-based, human; details: Homo sapiens; 10 μM; LOX IMVI, Melanoma; read-out: Growth percent rate
MALME-3M = assay: NCI60 one-dose screen (10 μM), Melanoma; assay type: cell-based; details: Homo sapiens; 10 μM; MALME-3M, Melanoma; read-out: Growth percent rate
M14 = assay: NCI60 one-dose screen (10 μM), Melanoma; assay type: cell-based; details: Homo sapiens; 10 μM; M14, Melanoma; read-out: Growth percent rate
SK-MEL-2 = assay: NCI60 one-dose screen (10 μM), Melanoma; assay type: cell-based; details: Homo sapiens; 10 μM; SK-MEL-2, Melanoma; read-out: Growth percent rate
SK-MEL-28 = assay: NCI60 one-dose screen (10 μM), Melanoma; assay type: cell-based; details: Homo sapiens; 10 μM; SK-MEL-28, Melanoma; read-out: Growth percent rate
SK-MEL-5 = assay: NCI60 one-dose screen (10 μM), Melanoma; assay type: cell-based, human; details: Homo sapiens; 10 μM; SK-MEL-5, Melanoma; read-out: Growth percent rate
UACC-257 = assay: NCI60 one-dose screen (10 μM), Melanoma; assay type: cell-based; details: Homo sapiens; 10 μM; UACC-257, Melanoma; read-out: Growth percent rate
IGROV1 = assay: NCI60 one-dose screen (10 μM), Ovarian Cancer; assay type: cell-based; details: Homo sapiens, IGROV-1; 10 μM; IGROV1, Ovarian Cancer; read-out: Growth percent rate
OVCAR-3 = assay: NCI60 one-dose screen (10 μM), Ovarian Cancer; assay type: cell-based; details: Homo sapiens; 10 μM; OVCAR-3, Ovarian Cancer; read-out: Growth percent rate
OVCAR-8 = assay: NCI60 one-dose screen (10 μM), Ovarian Cancer; assay type: cell-based; details: Homo sapiens; 10 μM; OVCAR-8, Ovarian Cancer; read-out: Growth percent rate
786–0 = assay: NCI60 one-dose screen (10 μM), Renal Cancer; assay type: cell-based; details: Homo sapiens; 10 μM; 786-0, Renal Cancer; read-out: Growth percent rate
A498 = assay: NCI60 one-dose screen (10 μM), Renal Cancer; assay type: cell-based; details: Homo sapiens; 10 μM; A498, Renal Cancer; read-out: Growth percent rate
ACHN = assay: NCI60 one-dose screen (10 μM), Renal Cancer; assay type: cell-based; details: Homo sapiens, 10 μM, Renal Cancer, read-out: Growth percent rate
RXF 393 = assay: NCI60 one-dose screen (10 μM), Renal Cancer; assay type: cell-based, human; details: Homo sapiens; 10 μM; RXF 393, Renal Cancer; read-out: Growth percent rate
SN12C = assay: NCI60 one-dose screen (10 μM), Renal Cancer; assay type: cell-based; details: Homo sapiens, 10 μM, Renal Cancer, read-out: Growth percent rate
TK-10 = assay: NCI60 one-dose screen (10 μM), Renal Cancer; assay type: cell-based; details: Homo sapiens; 10 μM; TK-10, Renal Cancer; read-out: Growth percent rate
DU-145 = assay: NCI60 one-dose screen (10 μM), Prostate Cancer; assay type: cell-based; details: Homo sapiens; 10 μM; DU-145, Prostate Cancer; read-out: Growth percent rate
MCF7 = assay: NCI60 one-dose screen (10 μM), Breast Cancer; assay type: cell-based; details: Homo sapiens; 10 μM; MCF7, Breast Cancer; read-out: Growth percent rate
HS 578T = assay: NCI60 one-dose screen (10 μM), Breast Cancer; assay type: cell-based; details: Homo sapiens; 10 μM; HS 578T, Breast Cancer; read-out: Growth percent rate
[1] = test system: 60 human tumor cell lines (NCI60); assay: NCI60 one-dose screen (10 μM), whole panel; assay type: cell-based

**Q.** For `CCC12C=CCN3CCC4(c5ccc(OC)cc5N(C)C4C(O)(C(=O)OC)C1OC(=O)CCCBr)C32` (stereo not shown) [Compound 14, 17-(O-4-bromobutanoyl)vindoline], which activity at 10 µM (CCRF-CEM) is on record?
**A.** Its activity at 10 µM is 99.8%.

**Q.** What about the activity at 10 µM (HL-60(TB)) of the same molecule?
**A.** The activity at 10 µM was 90.5%.

**Q.** And the activity at 10 µM (K-562)?
**A.** Its activity at 10 µM is 79.7%.

**Q.** And the activity at 10 µM (MOLT-4)?
**A.** The activity at 10 µM was 76.1%.

**Q.** And the activity at 10 µM (RPMI-8226)?
**A.** The activity at 10 µM was 91.4%.

**Q.** And the activity at 10 µM (A549/ATCC)?
**A.** Its activity at 10 µM is 89.4%.

**Q.** What about the activity at 10 µM (HOP-62) of the same molecule?
**A.** The activity at 10 µM was 101%.

**Q.** What about the activity at 10 µM (NCI-H322M) of the same molecule?
**A.** The activity at 10 µM was 101%.

**Q.** And the activity at 10 µM (NCI-H460)?
**A.** Its activity at 10 µM is 97.8%.

**Q.** What about the activity at 10 µM (NCI-H522) of the same molecule?
**A.** Its activity at 10 µM is 79%.

**Q.** What about the activity at 10 µM (COLO 205) of the same molecule?
**A.** The activity at 10 µM was 101%.

**Q.** And the activity at 10 µM (HCT-116)?
**A.** The activity at 10 µM was 87%.

**Q.** And the activity at 10 µM (HCT-15)?
**A.** The activity at 10 µM was 96.8%.

**Q.** What about the activity at 10 µM (HT29) of the same molecule?
**A.** The activity at 10 µM was 94.1%.

**Q.** What about the activity at 10 µM (KM12) of the same molecule?
**A.** Its activity at 10 µM is 100%.

**Q.** What about the activity at 10 µM (SW-620) of the same molecule?
**A.** The activity at 10 µM was 100%.

**Q.** What about the activity at 10 µM (SF-268) of the same molecule?
**A.** Its activity at 10 µM is 83.2%.

**Q.** What about the activity at 10 µM (SF-295) of the same molecule?
**A.** Its activity at 10 µM is 86.9%.

**Q.** What about the activity at 10 µM (SF-539) of the same molecule?
**A.** The activity at 10 µM was 91.9%.

**Q.** And the activity at 10 µM (SNB-19)?
**A.** The activity at 10 µM was 89.3%.

**Q.** And the activity at 10 µM (SNB-75)?
**A.** Its activity at 10 µM is 92.6%.

**Q.** And the activity at 10 µM (U251)?
**A.** Its activity at 10 µM is 87.2%.

**Q.** And the activity at 10 µM (LOX IMVI)?
**A.** Its activity at 10 µM is 88.6%.

**Q.** And the activity at 10 µM (MALME-3M)?
**A.** Its activity at 10 µM is 101%.

**Q.** And the activity at 10 µM (M14)?
**A.** The activity at 10 µM was 95.7%.

**Q.** What about the activity at 10 µM (SK-MEL-2) of the same molecule?
**A.** The activity at 10 µM was 103%.

**Q.** And the activity at 10 µM (SK-MEL-28)?
**A.** The activity at 10 µM was 105%.

**Q.** What about the activity at 10 µM (SK-MEL-5) of the same molecule?
**A.** Its activity at 10 µM is 84.3%.

**Q.** What about the activity at 10 µM (UACC-257) of the same molecule?
**A.** The activity at 10 µM was 88.4%.

**Q.** What about the activity at 10 µM (IGROV1) of the same molecule?
**A.** The activity at 10 µM was 100%.

**Q.** What about the activity at 10 µM (OVCAR-3) of the same molecule?
**A.** Its activity at 10 µM is 99.7%.

**Q.** And the activity at 10 µM (OVCAR-8)?
**A.** Its activity at 10 µM is 93.4%.

**Q.** And the activity at 10 µM (786–0)?
**A.** Its activity at 10 µM is 94.3%.

**Q.** What about the activity at 10 µM (A498) of the same molecule?
**A.** The activity at 10 µM was 90.1%.

**Q.** What about the activity at 10 µM (ACHN) of the same molecule?
**A.** Its activity at 10 µM is 99.8%.

**Q.** What about the activity at 10 µM (RXF 393) of the same molecule?
**A.** The activity at 10 µM was 99.5%.

**Q.** What about the activity at 10 µM (SN12C) of the same molecule?
**A.** Its activity at 10 µM is 97.4%.

**Q.** What about the activity at 10 µM (TK-10) of the same molecule?
**A.** Its activity at 10 µM is 100%.

**Q.** What about the activity at 10 µM (DU-145) of the same molecule?
**A.** Its activity at 10 µM is 99.6%.

**Q.** What about the activity at 10 µM (MCF7) of the same molecule?
**A.** The activity at 10 µM was 80.3%.

**Q.** And the activity at 10 µM (HS 578T)?
**A.** Its activity at 10 µM is 94.5%.

**Q.** What about the “antiproliferative effect (in words)” value ([1]; 10 μM one-dose, NCI60) of the same molecule?
**A.** Its value is “a notable antiproliferative effect was not shown”.

**Q.** What about the activity at 10 µM ([1]; 10 μM, mean over 60 human cancer cell lines, read-out: Growth percent rate, Mean) of the same molecule?
**A.** Its activity at 10 µM is 92.5%.
